Experimental data taken from patent US7151105B2, “Inhibitors of Hepatitis C virus RNA-dependent RNA polymerase, and compositions and treatments using the same” (Agouron Pharmaceuticals, Inc., priority 2004, dated 2006).

What follows are compounds tested against T1, Recombinant HCV polymerase (Hepatitis C virus genotype 1b, UniProt P26663) (assay: biochemical). Details: inhibition of polymerase-directed transcription; 30 min at 30° C; 30 nM enzyme; cpm data in triplicate.
T1 construct: Recombinant HCV polymerase was tested for its ability to perform primer/template-directed transcription
Summary of the method: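 Primer/template-directed RNA synthesis by 2.5 pmol HCV polymerase on poly(rC)300/biotin-dG12 with 1 μM GTP plus α-32P-GTP, in pH 7.2 Tris buffer with 10 mM MgCl2, for 30 min at 30 °C. Products were filter-captured and counted, with 1% DMSO final. IC50 was fitted from triplicate cpm; percent inhibition was reported where IC50 was impractical.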

T1 sequence (P26663 2420-3010): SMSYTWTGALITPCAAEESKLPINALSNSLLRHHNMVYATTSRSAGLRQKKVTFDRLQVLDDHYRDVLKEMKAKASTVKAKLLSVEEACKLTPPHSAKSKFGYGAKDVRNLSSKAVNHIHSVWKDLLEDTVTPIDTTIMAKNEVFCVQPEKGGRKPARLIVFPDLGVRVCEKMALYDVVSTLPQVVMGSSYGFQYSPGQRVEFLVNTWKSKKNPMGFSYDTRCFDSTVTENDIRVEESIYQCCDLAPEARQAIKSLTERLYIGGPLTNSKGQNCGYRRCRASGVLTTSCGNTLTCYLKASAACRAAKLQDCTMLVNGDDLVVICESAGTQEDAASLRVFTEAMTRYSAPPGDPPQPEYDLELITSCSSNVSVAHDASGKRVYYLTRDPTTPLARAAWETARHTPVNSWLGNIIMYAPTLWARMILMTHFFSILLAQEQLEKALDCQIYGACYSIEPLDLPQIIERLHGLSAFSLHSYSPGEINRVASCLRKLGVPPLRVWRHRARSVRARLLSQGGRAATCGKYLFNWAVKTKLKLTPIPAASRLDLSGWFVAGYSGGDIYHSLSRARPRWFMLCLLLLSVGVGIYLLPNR

IC50 [µM] | Compound
0.3 | Cc1cc(C)n2nc(CC3=C(O)CC(CCc4ccc([C@@H](C)N)cc4)(C4CCCC4)OC3=O)nc2n1 (stereo partly drawn) [A(92), 6-(2-{4-[(1R)-1-Aminoethyl]phenyl}ethyl)-6-cyclopentyl-3-[(5,7-dimethyl[1,2,4]triazolo[1,5-a]pyrimidin-2-yl)methyl]-hydroxy-5,6-dihydro-2H-pyran-2-one]
0.008 | CCc1cncc(CCC2(C3CCCC3)CC(O)=C(Cc3nc4nc(C)cc(C)n4n3)C(=O)O2)c1 (centres unmarked) [A(14), 6-Cyclopentyl-3-[(5,7-dimethyl[1,2,4]triazolo[1,5-a]pyrimidin-2-yl)methyl]-6-[2-(5-ethylpyridin-3-yl)ethyl]-4-hydroxy-5,6dihydro-2H-pyran-2-one]
0.002 | CCc1cc(CCC2(C3CCCC3)CC(O)=C(Cc3nc4nc(C)cc(C)n4n3)C(=O)O2)ccc1CNC(C)=O (centres unmarked) [A(131), N-[4-(2-{2-cyclopentyl-5-[(5,7-dimethyl[1,2,4]triazolo[1,5-a]pyrimidin-2-yl)methyl]-4-hydroxy-6-oxo-3,6-dihydro-2H-pyran-2-yl}ethyl)-2-ethylbenzyl]acetamide]

Second part, the compound before the results:

Compound | IC50 [µM]
Cc1cnc2nc(CC3=C(O)CC(CCc4ccc(C(C)(C)O)c(Cl)c4)(C4CCCC4)OC3=O)nn2c1 (centres unmarked) [B(36), 6-{2-[3-Chloro-4-(1-hydroxy-1-methylethyl)phenyl]ethyl}-6-cyclopentyl-4-hydroxy-3-[(6-methyl[1,2,4]triazolo[1,5-a]pyrimidin-2-yl)methyl]-5,6-dihydro-2H-pyran-2-one] | 0.019
CCc1cc(CCC2(C3CCCC3)CC(=O)CC(=O)O2)c(OC)cn1 (centres unmarked) [A(2), 6–Cyclopentyl-6-[2-(2-ethyl-5-methoxypyridin-4-yl)ethyl]dihydro-2H-pyran-2,4(3H)-dione] | 0.62
CCc1cc(CCC2(C3CCCC3)CC(O)=C(Cc3nc4nc(C)cc(C)n4n3)C(=O)O2)c(OC)cn1 (centres unmarked) [A(3), 6-Cyclopentyl-3-[(5,7-dimethyl[1,2,4]triazolo[1,5-a]pyrimidin-2-yl)methyl]-6-[2-(2-ethyl-5-methoxypyridin-4-yl)ethyl]-4-hydroxy-5,6-dihydro-2H-pyran-2-one] | 0.001
CCOc1cnc(CC)cc1CCC1(C2CCCC2)CC(O)=C(Cc2nc3ncc(C)cn3n2)C(=O)O1 (centres unmarked) [A(43), 6-Cyclopentyl-6-[2-(5-ethoxy-2-ethylpyridin-4-yl)ethyl]-4-hydroxy-3-[(6-methyl[1,2,4]triazolo[1,5-a]pyrimidin-2-yl)methyl]-5,6-dihydro-2H-pyran-2-one] | 0.008
Cn1cc(CC2=C(O)CC(CCc3ccc(C(C)(C)C#N)c(F)c3)(C3CCCC3)OC2=O)cn1 (centres unmarked) [A(86), 2-[4(2-{2-Cyclopentyl-hydroxy-5[(1-methyl-1H-pyrazol-4-yl)methyl]-6-oxo-3,6-dihydro-2H-pyran-2-yl}ethyl)-2-fluorophenyl]-2-methylpropanenitrile] | 0.086
CCC(C#N)(CC)c1ccc(CCC2(C3CCCC3)CC(O)=C(Cc3nc4nc(C)cc(C)n4n3)C(=O)O2)cc1C(F)(F)F (single isomer, unassigned) [A(154), 2-[4-(2-{2-Cyclopentyl-5-[(5,7-dimethyl[1,2,4]triazolo[1,5-a]pyrimidin-2-yl)methyl]-4-hydroxy-6-oxo-3,6-dihydro-2H-pyran-2-yl}ethyl)-2-(trifluoromethyl)phenyl]-2-ethylbutanenitrile] | 0.011
COc1cc(OC)c(CCC2(C3CCCC3)CC(O)=C(Cc3nc(-c4ccccc4)nn3C)C(=O)O2)cc1Cl (centres unmarked) [B(17), 6-[2-(5-Chloro-2,4-dimethoxyphenyl)ethyl]-6-cyclopentyl-4-hydroxy-3-[(1-methyl-3-phenyl-1H-1,2,4-triazol-5-yl)methyl]-5,6-dihydro-2H-pyran-2-one] | 0.026

Same assay, conditions: read-out: % inh @ 50 uM

Compound | inhibition at 50 µM [%]
CCc1cc(CCC2(C3CCCC3)CC(=O)CC(=O)O2)c(OC)cc1OCCN(C)C(=O)OC(C)(C)C (centres unmarked) [A(73), tert-Butyl 2-{4-[2-(2-cyclopentyl-4,6-dioxotetrahydro-2H-pyran-2-yl)ethyl]-2-ethyl-5-methoxyphenoxy}ethyl(methyl)carbamate] | 19
